Data published in US4929639A, “Oxygen-containing heterocyclic compound” (Fujisawa Pharmaceutical Company, Ltd., priority 1988, dated 1990).

Tested on: rabbit platelet
Assay: Effect on 9,11-azo PGH2 induced aggregation of rabbit platelet in vitro
Format: cell-based
Settings: Oryctolagus cuniculus, rabbit PRP, 9,11-azo PGH2 final 1.0 μM, 37° C., 2 minutes preincubation, read-out: IC50 (Inhibition concentration of platelet aggregation by 50%)
Source text: In the following tests, the used 9, 11-azo PGH2 and 9,11-methanoepoxy PGH2 (U46619) are characterized pharmacologically as TXA2 mimetic agents and widely used for evaluating TXA2 antagonism of test compounds (for example, vida The Journal of Pharmacology and Experimental Therapeutics Vol. 234, pp 435-441).
Test 1 (Effect on 9,11-azo PGH2 induced aggregation of rabbit platelet in vitro)
In the in vitro experiments, the blood was collected from the carotid artery of rabbits into plastic vessels containing 0.1 volume of 3.8% aqueous sodium citrate. Platelet rich plasma (PRP) was prepared by centrifugation at 150 g for 15 minutes. Platelet aggregation was investigated using the turbidometric method with an aggregometer (NKK HEMATRACER 1). To the 225 μl of PRP, 25 μl of test compound solution was added, and then stirred at 1000 rpm for 2 minutes at 37° C. To the solution, 5 μl of 9,11-azo PGH2 (final 1.0 μM) was added as an aggregating inducer. IC50 (Inhibition concentration of platelet aggregation by 50%) were graphically determined.

SMILES: C[C@@H]1OC[C@H](C/C=C\CCCC(=O)O)[C@H](C=NNC(=O)Nc2ccccc2)O1 [Test compound 2]
- IC50: 260 nM
